# “Also recorded” adds a separate entry of the source.
# Legend:
# [1] = tested on: PC-3 prostate cancer cell line; assay: Alamar Blue cell proliferation assay; type: cell-based, human
# Description: (§1) Cell culture: All cell lines except MCF10A are maintained in RPMI medium containing 10% foetal Bovine Serum (FBS) 100 U/ml penicillin, and 100 μg/ml streptomycin. MCF10A is maintained in mammary epithelial growth medium (MEGM) with singlequot addition (BPE, hydrocortisone, hEGF, insulin, gentamicin/amphotericin-B) (Clonetics/Cambrex Bio Science). All cell lines are incubated at 37° C., 5% CO2, and 95% humidity.
# (§2) Alamar Blue cell proliferation assay: Cells are plated in black cell culture treated Packard/Perkin Elmer 96-viewplates in 100 μl/well RPMI medium containing […], 100 U/ml penicillin, and 100 μg/ml streptomycin. Cell proliferation has been estimated in triplicate for all cell lines in medium containing either 1% FBS or 10% FBS. […]
# (§3) The number of viable cells is estimated using an Alamar Blue assay that measures mitochondrial activity. […] Alamar Blue signal is read in a fluorescence plate reader using a 590 nm emission filter and a 530 nm excitation filter.
# (§4) Data handling/calculations: Data are normalised to values from 0% activity (S0) to 100% activity (Smax). Average values for S0 and Smax are calculated and used to calculate percent activity (PCTACT) in the assays by the formula: PCTACT=(Xraw−Smax)/(S0−Smax)*100.
# MDA-MB-468 tumours = assay: Xenograft studies using MDA-MB-468 tumours; type: in vivo, mice
# MCF-7 tumours = assay: Xenograft studies using MCF-7 tumours; type: in vivo, mice
# Description: Nude balb/c mice weighing 25-45 grams are implanted with MCF-7 tumours by subcutaneous implantation in both flanks. […] Tumour volume is determined once or twice/week.
# [2] = tested on: mTOR pathway proteins (p70S6K, S6, 4E-BP1, AKT, cyclin D3) in MDA-468 cells; assay: Western Blots on proteins involved in translational control; type: cell-based, human; settings: MDA-468, 24 hour incubation
# Description: 16-24 hours after, the growth medium were shifted to growth medium containing compounds.
# After 24 or 48 hours incubation with compounds, cells were washed with ice cold PBS buffer and harvested in lysis buffer: Cytobuster reagent (Novagen) containing phosphatase inhibitor cocktail 1 and 2 and protease inhibitor cocktail (Sigma). Samples containing an equal amount of protein were loaded onto 7% Tris Acetate gels, 10% Bis-Tris in MES buffer or 12% Bis-Tris gels using MOPS running buffer (Invitrogen). Following electrophoresis the samples were blotted onto a PVDF membrane (Invitrogen). For membrane blocking and antibody incubations of p70 S6K, Phospho-p70 S6K (Thr389), PathscanI and S6 antibodies (Cell Signalling Technology) a buffer containing 0.2% Tween-20, 5% non-fat dry milk, 5% FBS, in Tris buffered Saline (TBS) were used. For immunoblotting of 4EBP1, Phospho 4EBP1 (Thr37/46), Phospho 4EBP1 (Ser65) (Cell Signalling Technology) and Cyclin D3 (Santa Cruz) a protocol from Cell Signalling Technology were used. Cell Signalling Technology blocking buffer contains 0.1% Tween-20, 5% non fat dry milk in TBS and primary antibody dilution buffer contains 0.1% Tween-20, 5% BSA in TBS. Before adding primary antibody dilution buffer to the membranes, the blots were rinsed briefly in 0.1% Tween-20. […] Peroxidase activity was detected using the ECL detection system (Amersham Biosciences).
# MDA-MB-468 cells = assay: Protein synthesis, 14C-Leucine incorporation (Cytostar-T); type: cell-based, human; settings: all time-points
# Description: (§5) As described in “Leucine Uptake [^14C] Cytostar-T assay, Amersham Biosciences” (CFA773).
# (§6) And incubated overnight in growth medium. The next day medium was carefully aspirated (8-channel Vacuboy) and 50 μL of fresh pre-warmed medium (10% FCS, 10 mM HEPES pH 7.2-7.5) was added. Cells were allowed to equilibrate at 37° C. for 60 min. Test compounds were added in 50 μL medium and ^14C-leucine was added in 100 μL medium (0.5 μCi mL−1 final). Plates were sealed with transparent, adhesive foil. Plates were then incubated in a 37° C. for 6 h in a humidified incubator. Incorporation of radioactive leucine into proteins (a measure of protein synthesis) was then read by coincidence scintillation (counts per minute (CPM)) using a Wallac Microbeta detector at the indicated time-intervals. A reading a t=0 (5 min after sealing plates) for each well is subtracted as background.
# MDA-MB-231 cells = assay: as above; type: cell-based, human; settings: all time-points
# Description: as §5, §6
# [3] = tested on: panel of prostate cancer cell lines; assay: Alamar Blue cell proliferation assay, summary over the prostate panel; type: cell-based; settings: 10% FBS
# Description: as §1, §2, §3, §4
# [4] = tested on: panel of human breast cancer cell lines; assay: Alamar Blue cell proliferation assay, summary over the breast panel; type: cell-based; settings: 10% FBS; FIGS. 9, 10 and 11
# Description: as §1, §2, §3, §4
# [5] = tested on: MDA-MB-453 breast cancer cell line; assay: Alamar Blue cell proliferation assay; type: cell-based; settings: Homo sapiens, MDA-MB-453, 72 h, MDA-MB-453, 10% FBS, read-out: EC50 (nM), IC50 values for inhibition of cell proliferation
# Description: as §1
# (§7) Alamar Blue cell proliferation assay: Cells are plated in black cell culture treated Packard/Perkin Elmer 96-viewplates in 100 μl/well RPMI medium containing […], 100 U/ml penicillin, and 100 μg/ml streptomycin. Cell proliferation has been estimated in triplicate for all cell lines in medium containing either 1% FBS or 10% FBS. The day after plating, the growth medium is changed to either 100 μl/well RPMI containing 1% FBS, 100 U/ml penicillin, 100 μg/ml streptomycin and 25 μg/ml gentamicin or to 100 μl/well RPMI containing 10% FBS, 100 U/ml penicillin, 100 μg/ml streptomycin and 25 μg/ml gentamicin. Compounds are added in 9 point half-log dilution series at concentrations indicated in the graphs. […] Briefly, compounds are diluted in compound plates in growth medium containing either 1% FBS or 10% FBS corresponding to the medium in the plates. Compounds are transferred to the cell plates by transfer of 100 μl/well, resulting in a total volume of 200 μl/well containing compound at concentrations indicated in graphs and 0.25% DMSO. Terfenedine is used as a control for maximal cell kill in wells containing 50 μM terfenedine and 0.5% DMSO (Smax). Negative control wells (So) contain medium with 0.25% DMSO.
# (§8) After compound addition cell plates are incubated undisturbed for 72 hours at 37° C., 5% CO2, and 95% humidity.
# (§9) The number of viable cells is estimated using an Alamar Blue assay that measures mitochondrial activity. The medium is decanted and replaced with 150 μl/well RPMI medium without phenol-red containing 100 U/ml penicillin, and 100 μg/ml streptomycin and 10% Alamar Blue. The plates are placed in the incubator at 37° C., 5% CO2, and 95% humidity for 2 hours. Then, plates are moved to a table and allowed to cool to room temperature without stacking the plates. Alamar Blue signal is read in a fluorescence plate reader using a 590 nm emission filter and a 530 nm excitation filter.
# as §4
# [6] = tested on: T47-D breast cancer cell line; assay: Alamar Blue cell proliferation assay; type: cell-based; settings: Homo sapiens, T47D, 72 h, 10% FBS, read-out: EC50 (nM), IC50 values for inhibition of cell proliferation
# Description: as §1, §7, §8, §9, §4
# [7] = tested on: MDA-MB-468 breast cancer cell line; assay: Alamar Blue cell proliferation assay; type: cell-based; settings: Homo sapiens, MDA-MB-468, 72 h, MDA-MB-468, 10% FBS, read-out: EC50 (nM), IC50 values for inhibition of cell proliferation
# Description: as §1, §7, §8, §9, §4
# [8] = tested on: DU-145 prostate cancer cell line; assay: Alamar Blue cell proliferation assay; type: cell-based; settings: Homo sapiens; DU-145, 10% FBS, 72 hours; read-out: EC50 (nM); IC50 values for inhibition of cell proliferation
# Description: as §1, §7, §8, §9, §4
# [9] = tested on: ZR75-1 breast cancer cell line; assay: Alamar Blue cell proliferation assay; type: cell-based; settings: Homo sapiens, ZR-75-1; ZR75-1, 10% FBS, 72 hours; read-out: EC50 (nM); IC50 values for inhibition of cell proliferation
# Description: as §1, §7, §8, §9, §4
# [10] = tested on: MDA-MB-435S breast cancer cell line; assay: Alamar Blue cell proliferation assay; type: cell-based; settings: Homo sapiens, 10% FBS, 72 hours, read-out: EC50 (nM), IC50 values for inhibition of cell proliferation
# Description: as §1, §7, §8, §9, §4
# [11] = tested on: non-transformed human breast epithelial cell line MCF10A; assay: Alamar Blue cell proliferation assay; type: cell-based; settings: MCF-10A, serum-free MEGM medium, 72 hours, read-out: EC50 (nM), IC50 values for inhibition of cell proliferation
# Description: as §1, §7, §8, §9, §4
# [12] = tested on: MCF7 breast cancer cell line; assay: Alamar Blue cell proliferation assay; type: cell-based; settings: Homo sapiens, MCF7, 72 h, MCF7, 10% FBS, read-out: EC50 (nM), IC50 values for inhibition of cell proliferation
# Description: as §1, §7, §8, §9, §4
# [13] = tested on: LnCaP prostate cancer cell line; assay: Alamar Blue cell proliferation assay; type: cell-based; settings: Homo sapiens, 10% FBS, 72 hours, read-out: EC50 (nM), IC50 values for inhibition of cell proliferation
# Description: as §1, §7, §8, §9, §4
# [14] = tested on: HCC-1954 breast cancer cell line; assay: Alamar Blue cell proliferation assay; type: cell-based; settings: Homo sapiens, HCC1954, 72 h, HCC-1954, 10% FBS, read-out: EC50 (nM), IC50 values for inhibition of cell proliferation
# Description: as §1, §7, §8, §9, §4
# [15] = tested on: BT-474 breast cancer cell line; assay: Alamar Blue cell proliferation assay; type: cell-based; settings: Homo sapiens, BT-474, 72 h, BT-474, 10% FBS, read-out: EC50 (nM), IC50 values for inhibition of cell proliferation
# Description: as §1, §7, §8, §9, §4
# [16] = tested on: MDA-MB-231 breast cancer cell line; assay: Alamar Blue cell proliferation assay; type: cell-based; settings: Homo sapiens; MDA-MB-231, 10% FBS, 72 hours; read-out: EC50 (nM); IC50 values for inhibition of cell proliferation
# Description: as §1, §7, §8, §9, §4
# [17] = tested on: PC-3/M prostate cancer cell line; assay: Alamar Blue cell proliferation assay; type: cell-based; settings: Homo sapiens, 10% FBS, 72 hours, read-out: EC50 (nM), IC50 values for inhibition of cell proliferation
# Description: as §1, §7, §8, §9, §4
# [18] = tested on: BT-549 breast cancer cell line; assay: Alamar Blue cell proliferation assay; type: cell-based; settings: Homo sapiens, BT-549, 72 h, BT-549, 10% FBS, read-out: EC50 (nM), IC50 values for inhibition of cell proliferation
# Description: as §1, §7, §8, §9, §4
# [19] = tested on: SKBr-3 breast cancer cell line; assay: Alamar Blue cell proliferation assay; type: cell-based; settings: Homo sapiens, SK-BR-3, 72 h, SKBr-3, 10% FBS, read-out: EC50 (nM), IC50 values for inhibition of cell proliferation
# Description: as §1, §7, §8, §9, §4
# [20] = monotherapy, PO daily for 15 days or IV weekly for 4 weeks
smiles,measurement,setting,value
"O=C1Nc2c(ccc(F)c2F)C1(c1ccc(O)cc1)c1ccc(O)cc1 [Compound 41, 6,7-Difluoro-3,3-bis-(4-hydroxy-phenyl)-1,3-dihydro-indol-2-one]",Effect on proliferation of PC-3,[1]; 10% FBS,inhibit the proliferation
same,"Rate of tumour growth, MDA-MB-468 xenograft",MDA-MB-468 tumours; [20],reduces the rate of MDA-MB-468 human breast cancer tumour cell growth
same,"Tumour regression, MDA-MB-468 xenograft","MDA-MB-468 tumours; monotherapy, PO or IV",induces tumour regression at all doses tested; also recorded: more pronounced tumour regression at all doses tested
same,"Effect compared with paclitaxel, MDA-MB-468 xenograft","MDA-MB-468 tumours; mouse, in vivo",more pronounced than following administration of paclitaxel; also recorded: more effective than paclitaxel
same,"Per-oral versus intravenous dosing, MDA-MB-468 xenograft","MDA-MB-468 tumours; mouse, in vivo",equally effective by per-oral and intravenous dosing
same,"Tumour size / growth, MCF-7 xenograft",MCF-7 tumours; [20],reduces the rate of MCF-7 human breast cancer tumour cell growth; also recorded: reduces the size of MCF7 tumours
same,"Tumour regression, MCF-7 xenograft","MCF-7 tumours; monotherapy, PO or IV",induces tumour regression at all doses tested; also recorded: tumour regression is noted using all doses tested
same,"Effect compared with paclitaxel, MCF-7 xenograft","MCF-7 tumours; mouse, in vivo",more pronounced than following administration of paclitaxel; also recorded: appears to be greater than paclitaxel
same,"Per-oral versus intravenous dosing, MCF-7 xenograft","MCF-7 tumours; mouse, in vivo",equally effective by the per-oral and intravenous dosing
CO[C@H]1C[C@@H]2CC[C@@H](C)[C@@](O)(O2)C(=O)C(=O)N2CCCC[C@H]2C(=O)O[C@H]([C@H](C)C[C@@H]2CC[C@@H](O)[C@H](OC)C2)CC(=O)[C@H](C)/C=C(\C)[C@@H](O)[C@@H](OC)C(=O)[C@H](C)C[C@H](C)/C=C/C=C/C=C/1C [rapamycin],AKT phosphorylation on Ser473 (Western blot),[2],not inhibited
COc1ccc(C[C@H]2NC[C@H](O)[C@H]2OC(C)=O)cc1 [Anisomycin],Effect of control compounds on 14C-Leucine incorporation,MDA-MB-468 cells,completely inhibit
same,Effect of control compounds on 14C-Leucine incorporation,MDA-MB-231 cells,completely inhibit
C[C@@H]1C[C@@H]([C@H](O)CC2CC(=O)NC(=O)C2)C(=O)[C@@H](C)C1 [Cycloheximide],Effect of control compounds on 14C-Leucine incorporation,MDA-MB-468 cells,completely inhibit
same,Effect of control compounds on 14C-Leucine incorporation,MDA-MB-231 cells,completely inhibit
O=C1Nc2ccccc2C1(c1ccc(O)cc1)c1ccc(O)cc1 [Oxyphenisatine],"Potency relative to Compound 3, prostate cell line panel",[3],lower potency than Compound 3
same,IC50,"[1]; Homo sapiens, PC-3, 10% FBS, 72 hours, read-out: EC50 (nM), IC50 values for inhibition of cell proliferation",899 nM
same,"Potency relative to Compound 3, breast cell line panel",[4],slightly lower in potency
same,IC50,[5],228 nM
same,IC50,[6],324 nM
same,IC50,[7],935 nM
same,IC50,[8],> 3000 nM
same,IC50,[9],285 nM
same,IC50,[10],> 3000 nM
same,IC50,[11],> 3000 nM
same,IC50,[12],517 nM
same,IC50,[13],790 nM
same,IC50,[14],912 nM
same,IC50,[15],324 nM
same,IC50,[16],> 3000 nM
same,IC50,[17],> 3000 nM
same,IC50,[18],859 nM
same,IC50,[19],527 nM
